# Assay results: patent US20220354844A1, “METHODS OF TREATING METABOLIC DISEASES WITH FUSED BICYCLIC PYRAZOLES” (Belite Bio, Inc, priority 2017, published 2022)
# “And” between values parts separate entries of the source, which are not always exact repeats. Identical values can stand only once. Like-named read-outs stand apart in the source and are kept apart here.
# Legend:
# [1] = system: Subjects with NAFLD or NASH; test: Treatment of NAFLD and NASH in humans; type: in vivo, human; details: 50 or 100 mg/day for 6 months
# Description: Subjects with NAFLD or NASH are treated with doses of either 50 or 100 mg/day of compound 1 or 2 for 6 months. Subjects are permitted their usual other medications (e.g. antidiabetic medications such as metformin or […]) but not glitazones, PPAR agonists, OCA, or similar medications. The subjects are assessed before the study, and at intervals during the study, such as every 4 weeks during the study and 4 weeks after the last dose of compound 1 or 2, for safety and pharmacodynamic evaluations.
# MRIs of the subjects' livers are taken every 4 weeks during the study and 4 weeks after completion of compound 1 or 2 dosing, to determine hepatic fat; and liver biopsies are taken before the study (to establish the diagnosis) and 4 weeks after completion of compound 1 or 2 dosing. At each visit, after a 12-hour fast, blood is drawn and urine collected; and a standard metabolic panel, complete blood count, and standard urinalysis are performed. Blood is analyzed for total cholesterol, HDL-C, LDL-C, VLDL-C, TGs, apoB, and liver transaminases. The subjects also maintain health diaries, which are reviewed at each visit.
# [2] = Compound 2 single dose rat PK study; type: in vivo, male Sprague Dawley rats; details: for Vd: read-out: Vss
# Description: A pharmacokinetic study of Compound 2 following a single intravenous or oral dose administration to male Sprague Dawley rats was conducted, the results of which are found in Table 5 and FIGS. 21-24.
# [3] = male, Sprague Dawley, plasma, iv, 2 mg/kg, single iv dose 2 mg/kg, Mean of the 3 rats
# [4] = male, Sprague Dawley, plasma, iv, 2 mg/kg, single iv dose 2 mg/kg, individual rats
# [5] = male, Sprague Dawley, plasma, po, 5 mg/kg, single po dose 5 mg/kg, Mean of the 3 rats
# [6] = male, Sprague Dawley, plasma, po, 5 mg/kg, single po dose 5 mg/kg, individual rats
# [7] = single iv dose 2 mg/kg, individual rats, 2 mg/kg
# [8] = single po dose 5 mg/kg, individual rats, 5 mg/kg
smiles,measurement,setting,value
"CC(=O)N1Cc2[nH]nc(C(=O)N3CCC(c4ccc(F)c(F)c4C(F)(F)F)CC3)c2C1 [Compound 2, 1-(3-(4-(3,4-difluoro-2-(trifluoromethyl)phenyl)piperidine-1-carbonyl)-4,6-dihydropyrrolo[3,4-c]pyrazol-5(1H)-yl)ethan-1-one]","improvement in their disease, as manifested by MRI and liver biopsy",[1],dose-related improvement
same,AUC(0-inf),[2]; [3],5750 ng·h/mL
same,AUC(0-t),[2]; [3],5720 ng·h/mL
same,MRT inf,[2]; [3],2.3 h
same,MRT last,[2]; [3],2.2 h
same,clearance,[2]; [3],3.17 mL/min/kg
same,half-life,[2]; [3],6.6 h
same,Tmax,"[2]; male, Sprague Dawley, plasma, iv, 2 mg/kg, single iv dose 2 mg/kg, Mean of the 3 rats, first plasma collection time or observed time of highest plasma concentration",0.22 h
same,Cmax,"[2]; male, Sprague Dawley, plasma, iv, 2 mg/kg, single iv dose 2 mg/kg, Mean of the 3 rats, read-out: Cmax",2840 ng/mL
same,Vd,[2]; [3],0.436 L/kg
same,MRT inf,[2]; [4],2.1 h
same,MRT last,[2]; [4],2 h
same,half-life,[2]; [4],7.1 h
same,Cmax,"[2]; male, Sprague Dawley, plasma, iv, 2 mg/kg, single iv dose 2 mg/kg, individual rats, read-out: Cmax",2920 ng/mL
same,Vd,[2]; [4],0.421 L/kg
same,AUC(0-inf),[2]; [5],6410 ng·h/mL
same,AUC(0-t),[2]; [5],6370 ng·h/mL
same,MRT inf,[2]; [5],4.8 h
same,MRT last,[2]; [5],4.5 h
same,Tmax,[2]; [5],0.5 h
same,half-life,[2]; [5],8 h
same,Cmax,"[2]; male, Sprague Dawley, plasma, po, 5 mg/kg, single po dose 5 mg/kg, Mean of the 3 rats, read-out: Cmax",1600 ng/mL
same,AUC(0-inf),[2]; [6],5340 ng·h/mL
same,AUC(0-t),[2]; [6],5280 ng·h/mL
same,MRT inf,[2]; [6],5 h
same,MRT last,[2]; [6],4.5 h
same,Tmax,[2]; [6],0.5 h
same,half-life,[2]; [6],10.9 h
same,Cmax,"[2]; male, Sprague Dawley, plasma, po, 5 mg/kg, single po dose 5 mg/kg, individual rats, read-out: Cmax",1530 ng/mL
same,AUCLAST,[2]; [7],5039 ng·h/mL and 8134 ng·h/mL and 3994 ng·h/mL
same,Cl,[2]; [7],2.05 mL/min/kg
same,Cmax,[2]; [7],3275 ng/mL and 2320 ng/mL
same,MRTinf,[2]; [7],2.6 h and 2.3 h
same,MRTlast,[2]; [7],2.5 h and 2.1 h
same,Vss,[2]; [7],0.315 L/kg and 0.572 L/kg
same,t1/2,[2]; [7],7.0 h and 5.7 h
same,F,"[2]; single po dose 5 mg/kg, Mean of the 3 rats",44.6%
same,AUCLAST,[2]; [8],8392 ng·h/mL and 5435 ng·h/mL
same,AUCinf,[2]; [8],8434 hr · ng/m1 and 5452 hr · ng/m1
same,Cmax,[2]; [8],2036 ng/mL and 1240 ng/mL
same,F,[2]; [8],37.2% and 58.7% and 38.0%
same,MRTinf,[2]; [8],5.4 h and 4.1 h
same,MRTlast,[2]; [8],5.1 h and 4.0 h
same,t1/2,[2]; [8],7.7 h and 5.5 h
